Where “and” joins values, the source holds several entries; their conditions need not be identical. Identical values can stand only once.
Key:
[1] = tested on: carp (Cyprinus carpio); parameters: method as in ECHA Registration dossier for octadecylamine; conditions: after acidic methanol wash to remove the mucous, validity uncertain, ref ECHA Registration dossier for octadecylamine; cited from earlier work
[2] = tested on: rainbow trout (Oncorhynchus mykiss); assay: Tissue-blood distribution coefficients and volume of distribution; conditions: residues in muscle, liver and blood only
Procedure, shortened: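 In rainbow trout, muscle–blood and liver–blood distribution coefficients were calculated as tissue/blood concentration quotients, assuming internal steady state. Vd was the fish/blood concentration quotient, estimated from residues in muscle, liver and blood.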

[3] = tested on: rainbow trout (Oncorhynchus mykiss); assay: Surface area-normalized mucus-water and gill-water distribution coefficients; conditions: for Gill-water distribution coefficient (DG-W): from average concentrations in gills and water, calculated gill surface; for Mucus-water distribution coefficient (DMuc-W): from average concentrations in mucus and water
Experimental: For each mixture, the syringe pump was started in an aquarium containing no fish. After 16 h, to allow the concentrations to stabilize, 12 rainbow trout were added. After 7 d of exposure, the fish in the exposure aquaria as well as several unexposed (control) fish were sacrificed. Following stunning, blood was collected with a heparinized syringe from the caudal vein into a 2 mL Eppendorf tube. The fish were weighed and photographed, and the length was measured. The outer surface area of the fish was estimated from the fish weight according to O’Shea et al.[27] [drawing 1] 1
The gill surface area was estimated from the fish weight according to the equation specific for O. mykiss from a report by Hughes,[28] taken from ref ([29]) [drawing 2] 2
Because the mass of extracted mucus was not determined, the concentrations in mucus were normalized to the estimated fish’s total surface area (eq 1) excluding the head, which was not rinsed.
Surface area-normalized gill–water distribution coefficients (DG–W) were calculated from the average concentrations measured in gills and water, and a calculated gill surface based on rainbow trout specific scaling factors (eq 2). […] Unlike the skin, the gills were not rinsed with methanol, so the gill samples included gill mucus.

[4] = tested on: Pimephales promelas; parameters: method as in REACH dossiers (European Chemicals Agency); conditions: ref REACH dossiers (European Chemicals Agency); cited from earlier work
[5] = tested on: Danio rerio; conditions: ref REACH dossiers (European Chemicals Agency); cited from earlier work

SMILES | BCF [1] [L/kg] | Estimated volume of distribution Vd ([2]; Mean) [L/kg] | Estimated volume of distribution Vd ([2]; exposed fish #1) [L/kg] | Estimated volume of distribution Vd ([2]; exposed fish #2) [L/kg] | Estimated volume of distribution Vd ([2]; exposed fish #3) [L/kg] | Estimated volume of distribution Vd ([2]; exposed fish #4) [L/kg] | Estimated volume of distribution Vd ([2]; exposed fish #5) [L/kg] | Estimated volume of distribution Vd ([2]; exposed fish #6) [L/kg] | Gill-water distribution coefficient (DG-W) [3] [mLcm-2] | Mucus-water distribution coefficient (DMuc-W) [3] [mL cm-2] | 96h-LC50 [4] [µg/mL] | 96h-LC50 [5]
CCCCCCCCCCCCCCCCN [P16, hexadecylamine] | 300 | – | – | – | – | – | – | – | – | – | – | –
CCCCCCCCCN(C)C [T9, N,N-dimethylnonylamine] | – | 0.49 | 0.53 | 0.45 | 0.41 | 0.51 | 0.52 | 0.52 | 0.30 | 0.29 | – | –
CCCCCCCCCN [P9, Nonylamine] | – | – | – | – | – | – | – | – | 0.44 | 0.47 | – | –
CCCCCCCCCCCCCN [P13, tridecylamine] | – | – | – | – | – | – | – | – | 62 | 25 | 0.065 | –
CCCCCCCCCCCCN [P12, Dodecylamine] | – | – | – | – | – | – | – | – | 28 | 16.3 | – | 0.54 µg/mL and 0.42 µg/mL
CCCCCCCCCCCCCN(C)C [T13, N,N-dimethyltridecylamine] | – | 0.71 | 0.58 | 0.64 | 0.59 | 1.18 | 0.80 | 0.47 | 58 | 22 | – | –

Source: publication PMC7343282, “Tissue Distribution of Several Series of Cationic Surfactants in Rainbow Trout (Oncorhynchus mykiss) Following Exposure via Water” (Environmental Science & Technology, 2020)
